Measurements: US9938299B2, “Glycosidase inhibitors and uses thereof” (MERCK SHARP & DOHME CORP., priority 2012, dated 2018)

What follows are compounds tested against T1, human O-GlcNAcase (Homo sapiens, UniProt O60502) (assay: Determination of KI values for inhibition of O-GlcNAcase activity (fluorogenic 4-methylumbelliferyl GlcNAc substrate)). Settings: not given.
T1 sequence (O60502 1-916): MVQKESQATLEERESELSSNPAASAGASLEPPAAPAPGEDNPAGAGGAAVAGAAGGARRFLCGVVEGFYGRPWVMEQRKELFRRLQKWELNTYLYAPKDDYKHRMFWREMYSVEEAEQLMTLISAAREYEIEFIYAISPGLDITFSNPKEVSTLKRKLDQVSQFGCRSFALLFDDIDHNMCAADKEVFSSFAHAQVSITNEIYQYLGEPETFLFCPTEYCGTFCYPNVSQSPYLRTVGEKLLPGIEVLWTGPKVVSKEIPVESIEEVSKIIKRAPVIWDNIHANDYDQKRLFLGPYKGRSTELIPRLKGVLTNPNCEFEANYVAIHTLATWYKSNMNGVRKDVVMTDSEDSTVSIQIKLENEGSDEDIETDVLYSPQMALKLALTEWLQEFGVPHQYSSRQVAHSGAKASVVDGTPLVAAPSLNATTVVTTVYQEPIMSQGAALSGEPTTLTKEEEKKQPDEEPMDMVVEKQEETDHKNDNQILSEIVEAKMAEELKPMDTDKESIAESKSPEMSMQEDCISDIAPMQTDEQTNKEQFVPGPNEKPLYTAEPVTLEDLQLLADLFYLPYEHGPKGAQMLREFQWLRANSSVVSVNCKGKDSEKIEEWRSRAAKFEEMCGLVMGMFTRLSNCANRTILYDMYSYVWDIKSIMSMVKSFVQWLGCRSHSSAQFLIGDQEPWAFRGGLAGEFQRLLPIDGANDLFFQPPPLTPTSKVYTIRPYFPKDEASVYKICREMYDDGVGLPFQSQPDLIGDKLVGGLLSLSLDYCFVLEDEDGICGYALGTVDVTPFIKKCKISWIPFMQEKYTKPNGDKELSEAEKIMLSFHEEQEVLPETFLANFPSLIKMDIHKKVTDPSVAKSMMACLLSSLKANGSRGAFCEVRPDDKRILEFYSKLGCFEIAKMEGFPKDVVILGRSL
Type: biochemical
Protocol: Assay for Determination of […] for Inhibition of O-GlcNAcase Activity
Experimental procedure for kinetic analyses: Enzymatic reactions were carried out in a reaction containing 50 mM NaH2PO4, 100 mM NaCl and 0.1% BSA (pH 7.0) using 2 mM 4-Methylumbelliferyl N-acetyl-β-D-glucosaminide dihydrate (Sigma M2133) dissolved in ddH2O, as a substrate. The amount of purified human O-GlcNAcase enzyme used in the reaction was 0.7 nM. Test compound of varying concentrations was added to the enzyme prior to initiation of the reaction. The reaction was performed at room temperature in a 96-well plate and was initiated with the addition of substrate. […] The slope of product production was determined for each concentration of compound tested and plotted, using standard curve fitting algorithms for sigmoidal dose response curves. The values for a four parameter logistic curve fit of the data were determined.

**Q.** Which Ki does the source give for CNC1=N[C@@H]2[C@@H](O)[C@H](O)C(C(C)=O)O[C@@H]2S1 (stereo partly drawn) [Example 38, 1-((3aR,6S,7R,7aR)-6,7-dihydroxy-2-(methylamino)-5,6,7,7a-tetrahydro-3aH-pyrano[3,2-d]thiazol-5-yl)ethanone] here?
**A.** The Ki was 79 nM.

**Q.** With CCNC1=N[C@@H]2[C@@H](O)[C@H](O)[C@@H](C(=O)N(C)OC)O[C@@H]2S1 [Example 47, (3aR,5S,6S,7R,7aR)-2-(ethylamino)-6,7-dihydroxy-N-methoxy-N-methyl-5,6,7,7a-tetrahydro-3aH-pyrano[3,2-d]thiazole-5-carboxamide] as the compound, how does the Ki read?
**A.** Its Ki is 3320 nM.

**Q.** CCNC1=N[C@@H]2[C@@H](O)[C@H](O)[C@@H](C(=O)N(C)C)O[C@@H]2S1 [Example 51, (3aR,5S,6S,7R,7aR)-2-(ethylamino)-6,7-dihydroxy-N,N-dimethyl-5,6,7,7a-tetrahydro-3aH-pyrano[3,2-d]thiazole-5-carboxamide] was tested. Which Ki did it give?
**A.** Its Ki is 1880 nM.

**Q.** With CCNC1=N[C@@H]2[C@@H](O)[C@H](O)[C@@H](C(=O)O)O[C@@H]2S1 [Example 52, (3aR,5S,6S,7R,7aR)-2-(ethylamino)-6,7-dihydroxy-5,6,7,7a-tetrahydro-3aH-pyrano[3,2-d]thiazole-5-carboxylic acid] as the compound, how does the Ki read?
**A.** The Ki was 27 nM.

**Q.** With CCNC1=N[C@@H]2[C@@H](O)[C@H](O)[C@@H](C(=O)OC)O[C@@H]2S1 [Example 53, (3aR,5S,6S,7R,7aR)-N-ethyl-6,7-clihydroxy-5-(methoxycarbonyl)-5,6,7,7a-tetrahydro-3aH-pyrano[3,2-d]thiazol-2-aminium chloride] as the compound, how does the Ki read?
**A.** The Ki was 480 nM.

Same assay, conditions: purified human O-GlcNAcase 0.7 nM, 2 mM substrate, pH 7.0, room temperature; Cheng-Prusoff; read-out: Ki

**Q.** With CN(C)C1=N[C@@H]2[C@@H](O)[C@H](O)[C@@H]([C@@H](O)CCc3ccccc3)O[C@@H]2S1 [Example 24, (3aR,5R,6S,7R,7aR)-2-(dimethylamino)-5-((S)-1-hydroxy-3-phenylpropyl)-5,6,7,7a-tetrahydro-3aH-pyrano[3,2-d]thiazole-6,7-diol] as the compound, how does the Ki read?
**A.** Its Ki is 15 nM.

**Q.** For CN(C)C1=N[C@@H]2[C@@H](O)[C@H](O)[C@@H]([C@](O)(Cc3ccccc3)C(F)(F)F)O[C@@H]2S1 [Example 25, (3aR,5S,6S,7R,7aR)-2-(dimethylamino)-5-((R)-1,1,1-trifluoro-2-hydroxy-3-phenylpropan-2-yl)-5,6,7,7a-tetrahydro-3aH-pyrano[3,2-d]thiazole-6,7-diol], which Ki is on record?
**A.** Its Ki is 338 nM.

**Q.** With CN(C)C1=N[C@@H]2[C@@H](O)[C@H](O)[C@@H]([C@@](O)(Cc3ccccc3)C(F)(F)F)O[C@@H]2S1 [Example 26, (3aR,5S,6S,7R,7aR)-2-(dimethylamino)-5-(1,1,1-trifluoro-2-hydroxy-3-phenylpropan-2-yl)-5,6,7,7a-tetrahydro-3aH-pyrano[3,2-d]thiazole-6,7-diol] as the compound, how does the Ki read?
**A.** Its Ki is 66 nM.

**Q.** COc1ccc(CC[C@](O)([C@H]2O[C@@H]3SC(N(C)C)=N[C@@H]3[C@@H](O)[C@@H]2O)C(F)(F)F)cc1 [Example 30, (3aR,5S,6S,7R,7aR)-2-(dimethylamino)-5-(1,1,1-trifluoro-2-hydroxy-4-(4-methoxyphenyl)butan-2-yl)-5,6,7,7a-tetrahydro-3aH-pyrano[3,2-d]thiazole-6,7-diol] was tested. Which Ki did it give?
**A.** Its Ki is 142 nM.

**Q.** For CNC1=N[C@@H]2[C@@H](O)[C@H](O)[C@@H](CC#N)O[C@@H]2S1 [Example 31, 2-((3aR,5R,6S,7R,7aR)-6,7-dihydroxy-2-(methylamino)-5,6,7,7a-tetrahydro-3aH-pyrano[3,2-d]thiazol-5-yl)acetonitrile], which Ki is on record?
**A.** Its Ki is 1.08 nM.

**Q.** How did the Ki turn out when C=CCNC1=N[C@@H]2[C@@H](O)[C@H](O)[C@@H](CC#N)O[C@@H]2S1 [Example 32, 2-((3aR,5R,6S,7R,7aR)-2-(allylamino)-6,7-dihydroxy-5,6,7,7a-tetrahydro-3aH-pyrano[3,2-d]thiazol-5-yl)acetonitrile] was run?
**A.** The Ki was 130 nM.

**Q.** Which Ki does the source give for CN(C)C(=O)CC[C@H]1O[C@@H]2SC(N(C)C)=N[C@@H]2[C@@H](O)[C@@H]1O [Example 33, 3-((3aR,5R,6S,7R,7aR)-2-(dimethylamino)-6,7-dihydroxy-5,6,7,7a-tetrahydro-3aH-pyrano[3,2-d]thiazol-5-yl)-N,N-dimethylpropanamide] here?
**A.** The Ki was 311 nM.

**Q.** For CNC(=O)[C@H]1O[C@@H]2SC(NC)=N[C@@H]2[C@@H](O)[C@@H]1O [Example 35, (3aR,5 S,6S,7R,7aR)-6,7-dihydroxy-N-methyl-2-(methylamino)-5,6,7,7a-tetrahydro-3aH-pyrano[3,2-d]thiazole-5-carboxamide], which Ki is on record?
**A.** Its Ki is 845 nM.

**Q.** CNC1=N[C@@H]2[C@@H](O)[C@H](O)[C@@H](C(=O)O)O[C@@H]2S1 [Example 36, (3aR,5S,6S,7R,7aR)-6,7-dihydroxy-2-(methylamino)-5,6,7,7a-tetrahydro-3aH-pyrano[3,2-d]thiazole-5-carboxylic acid] was tested. Which Ki did it give?
**A.** The Ki was 5.5 nM.

**Q.** How did the Ki turn out when CNC1=N[C@@H]2[C@@H](O)[C@H](O)[C@@H](C(=O)OC)O[C@@H]2S1 [Example 37, (3aR,5S,6S,7R,7aR)-methyl 6,7-dihydroxy-2-(methylamino)-5,6,7,7a-tetrahydro-3aH-pyrano[3,2-d]-thiazole-5-carboxylate] was run?
**A.** The Ki was 68 nM.

**Q.** For CNC1=N[C@@H]2[C@@H](O)[C@H](O)[C@@H](CCl)O[C@@H]2S1 [Example 39, (3aR,5 S,6S,7R,7aR)-5-(chloromethyl)-2-(methylamino)-5,6,7,7a-tetrahydro-3aH-pyrano[3,2-d]thiazole-6,7-diol], which Ki is on record?
**A.** The Ki was 0.075 nM.

**Q.** With CNC1=N[C@@H]2[C@@H](O)[C@H](O)[C@@H](CCN)O[C@@H]2S1 [Example 40, (3aR,5R,6S,7R,7aR)-5-(2-aminoethyl)-2-(methylamino)-5,6,7,7a-tetrahydro-3aH-pyrano[3,2-d]thiazole-6,7-diol] as the compound, how does the Ki read?
**A.** Its Ki is 24 nM.

**Q.** Which Ki does the source give for CNCC[C@H]1O[C@@H]2SC(NC)=N[C@@H]2[C@@H](O)[C@@H]1O [Example 41, (3aR,5R,6S,7R,7aR)-2-(methylamino)-5-(2-(methylamino)ethyl)-5,6,7,7a-tetrahydro-3aH-pyrano[3,2-d]thiazole-6,7-diol] here?
**A.** The Ki was 8.4 nM.

**Q.** CNC1=N[C@@H]2[C@@H](O)[C@H](O)[C@@H](C(=O)NC3CC3)O[C@@H]2S1 [Example 42, (3aR,5S,6S,7R,7aR)-N-cyclopropyl-6,7-dihydroxy-2-(methylamino)-5,6,7,7a-tetrahydro-3aH-pyrano[3,2-d]thiazole-5-carboxamide] was tested. Which Ki did it give?
**A.** Its Ki is 987 nM.

**Q.** CNC1=N[C@@H]2[C@@H](O)[C@H](O)[C@@H](C(=O)NC(C)C)O[C@@H]2S1 [Example 43, (3aR,5S,6S,7R,7aR)-6,7-dihydroxy-N-isopropyl-2-(methylamino)-5,6,7,7a-tetrahydro-3aH-pyrano[3,2-d]thiazole-5-carboxamide] was tested. Which Ki did it give?
**A.** Its Ki is 588 nM.

**Q.** Which Ki does the source give for CCNC(=O)[C@H]1O[C@@H]2SC(NC)=N[C@@H]2[C@@H](O)[C@@H]1O [Example 44, (3aR,5S,6S,7R,7aR)-N-ethy1-6,7-dihydroxy-2-(methylamino)-5,6,7,7a-tetrahydro-3aH-pyrano[3,2-d]thiazole-5-carboxamide] here?
**A.** Its Ki is 1430 nM.

**Q.** For CCN(CC)C(=O)[C@H]1O[C@@H]2SC(NC)=N[C@@H]2[C@@H](O)[C@@H]1O [Example 45, (3aR,5S,6S,7R,7aR)-N,N-diethyl-6,7-dihydroxy-2-(methylamino)-5,6,7,7a-tetrahydro-3aH-pyrano[3,2-d]thiazole-5-carboxamide], which Ki is on record?
**A.** The Ki was 2500 nM.

**Q.** How did the Ki turn out when CCNC1=N[C@@H]2[C@@H](O)[C@H](O)[C@@H](C(=O)NC3CC3)O[C@@H]2S1 [Example 46, (3aR,5S,6S,7R,7aR)-N-cyclopropyl-2-(ethylamino)-6,7-dihydroxy-5,6,7,7a-tetrahydro-3aH-pyrano[3,2-d]thiazole-5-carboxamide] was run?
**A.** The Ki was 1960 nM.

**Q.** How did the Ki turn out when CCNC1=N[C@@H]2[C@@H](O)[C@H](O)[C@@H](C(=O)NC)O[C@@H]2S1 [Example 48, (3aR,5S,6S,7R,7aR)-2-(ethylamino)-6,7-dihydroxy-N-methyl-5,6,7,7a-tetrahydro-3aH-pyrano[3,2-d]thiazole-5-carboxamide] was run?
**A.** The Ki was 370 nM.

**Q.** Which Ki does the source give for CCNC1=N[C@@H]2[C@@H](O)[C@H](O)[C@@H](C(=O)NC(C)C)O[C@@H]2S1 [Example 49, (3aR,5S,6S,7R,7aR)-2-(ethylamino)-6,7-dihydroxy-N-isopropyl-5,6,7,7a-tetrahydro-3aH-pyrano[3,2-d]thiazole-5-carboxamide] here?
**A.** Its Ki is 142 nM.

**Q.** How did the Ki turn out when CCNC(=O)[C@H]1O[C@@H]2SC(NCC)=N[C@@H]2[C@@H](O)[C@@H]1O [Example 50, (3aR,5S,6S,7R,7aR)-N-ethyl-2-(ethylamino)-6,7-dihydroxy-5,6,7,7a-tetrahydro-3aH-pyrano[3,2-d]thiazole-5-carboxamide] was run?
**A.** The Ki was 2880 nM.
